Target: GLP-1 Receptor (Homo sapiens, UniProt P43220)
Test: GLP-1R agonist cAMP stimulation assay (HEK293/GLP1R/CRE-LUC cells, cAMP dynamic 2 Kit)
Type: cell-based
Conditions: HEK293/CRE-Luc cell line stably expressing the GLP-1 Receptor, 30 min at 37° C.
Procedure, shortened: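 HEK293 cells stably expressing human GLP-1R with CRE-luciferase, 1000 cells/well in DPBS with 0.5 mM IBMX and 0.1% BSA, treated with compound in 1/2-log serial dilution for 30 min at 37 °C. cAMP then detected by HTRF (cAMP-d2 plus anti-cAMP cryptate), 1 h at room temperature in the dark.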

Chain of GLP-1 Receptor (P43220 24-463, species assumed): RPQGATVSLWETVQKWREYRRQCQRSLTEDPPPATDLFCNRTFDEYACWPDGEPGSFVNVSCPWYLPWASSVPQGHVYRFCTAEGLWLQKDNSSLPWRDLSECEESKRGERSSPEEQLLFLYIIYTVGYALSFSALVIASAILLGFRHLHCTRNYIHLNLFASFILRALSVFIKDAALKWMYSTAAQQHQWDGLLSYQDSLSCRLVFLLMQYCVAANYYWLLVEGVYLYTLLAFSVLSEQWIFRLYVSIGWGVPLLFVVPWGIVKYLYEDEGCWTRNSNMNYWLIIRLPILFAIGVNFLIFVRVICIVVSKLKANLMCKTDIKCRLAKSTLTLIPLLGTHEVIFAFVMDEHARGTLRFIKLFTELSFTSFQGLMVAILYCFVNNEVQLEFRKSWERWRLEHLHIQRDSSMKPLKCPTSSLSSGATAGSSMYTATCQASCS

EC50 | Structure (SMILES)
210 pM | C[C@]1(c2ccc(Cl)cn2)Oc2cccc(C3CCN(Cc4nc5cc(-c6nnn[nH]6)cnc5n4C[C@@H]4CCO4)CC3)c2O1 [Compound 451a, 5-chloro-2-[(2S)-2-methyl-4-{1-[(3-{[(2S)-oxetan-2-yl]methyl}-6-(1H-1,2,3,4-tetrazol-5-yl)-3H-imidazo[4,5-b]pyridin-2-yl)methyl]piperidin-4-yl}-2H-1,3-benzodioxol-2-yl]pyridine]
110 pM | CC1(c2ccc(Cl)cc2F)Oc2cccc(C3CCN(Cc4nc5cc(-c6cn(CCC(=O)O)nn6)ccc5n4C[C@@H]4CCO4)CC3)c2O1 (stereo partly drawn) [Compound 251a, 3-{4-[2-({4-[2-(4-chloro-2-fluorophenyl)-2-methyl-2H-1,3-benzodioxol-4-yl]piperidin-1-yl}methyl)-1-{[(2S)-oxetan-2-yl]methyl}-1H-1,3-benzodiazol-5-yl]-1H-1,2,3-triazol-1-yl}propanoic acid]
420 pM | Fc1cc(Cl)ccc1COc1nccc(C2CCN(Cc3nc4cc(-c5nnc(C(F)(F)F)[nH]5)nnc4n3C[C@@H]3CCO3)CC2)n1 [Compound 508a, 2-[(4-chloro-2-fluorophenyl)methoxy]-4-{1-[(7-{[(2S)-oxetan-2-yl]methyl}-3-[5-(trifluoromethyl)-4H-1,2,4-triazol-3-yl]-7H-imidazo[4,5-c]pyridazin-6-yl)methyl]piperidin-4-yl}pyrimidine]
1200 pM | O=C(Nc1ccc2c(c1)nc(CN1CCC(c3cccc(OCc4ccc(Cl)cc4F)n3)CC1)n2C[C@@H]1CCO1)c1ccc(F)cn1 [Compound 190a, N-{2-[(4-{6-[(4-chloro-2-fluorophenyl)methoxy]pyridin-2-yl}piperidin-1-yl)methyl]-1-{[(2S)-oxetan-2-yl]methyl}-1H-1,3-benzodiazol-5-yl}-5-fluoropyridine-2-carboxamide]
1800 pM | CNc1c(Nc2ccc3c(c2)nc(CN2CCC(c4cccc(OCc5ccc(Cl)cc5F)n4)CC2)n3C[C@@H]2CCO2)c(=O)c1=O [Compound 208a, 3-({2-[(4-{6-[(4-chloro-2-fluorophenyl)methoxy]pyridin-2-yl}piperidin-1-yl)methyl]-1-{[(2S)-oxetan-2-yl]methyl}-1H-1,3-benzodiazol-5-yl}amino)-4-(methylamino)cyclobut-3-ene-1,2-dione]
3.7 pM | C[C@]1(c2ccc(Cl)cc2F)Oc2cccc(C3CCN(Cc4nc5cc(-c6nnc(C#N)[nH]6)ncc5n4C[C@@H]4CCO4)CC3)c2O1 [Compound 444a, 5-[2-({4-[(2S)-2-(4-chloro-2-fluorophenyl)-2-methyl-2H-1,3-benzodioxol-4-yl]piperidin-1-yl}methyl)-3-{[(2S)-oxetan-2-yl]methyl}-3H-imidazo[4,5-c]pyridin-6-yl]-4H-1,2,4-triazole-3-carbonitrile]
17 pM | Cc1ccc(COc2cccc(C3CCN(Cc4nc5cc(-c6nnc(C(F)(F)F)[nH]6)ncc5n4C[C@@H]4CCO4)CC3)n2)c(F)c1 [Compound 496a, 2-[(2-fluoro-4-methylphenyl)methoxy]-6-{1-[(3-{[(2S)-oxetan-2-yl]methyl}-6-[5-(trifluoromethyl)-4H-1,2,4-triazol-3-yl]-3H-imidazo[4,5-c]pyridin-2-yl)methyl]piperidin-4-yl}pyridine]
26 pM | O=c1[nH]c(-c2cc3nc(CN4CCC(c5ccc(F)c(OCc6ccc(Cl)cc6F)n5)CC4)n(C[C@@H]4CCO4)c3cn2)no1 [Compound 438a, 3-{2-[(4-{6-[(4-chloro-2-fluorophenyl)methoxy]-5-fluoropyridin-2-yl}piperidin-1-yl)methyl]-3-{[(2S)-oxetan-2-yl]methyl}-3H-imidazo[4,5-c]pyridin-6-yl}-4,5-dihydro-1,2,4-oxadiazol-5-one]
8600 pM | O=C(Nc1ccc2c(c1)nc(CN1CCC(c3cccc(OCc4ccc(Cl)cc4F)n3)CC1)n2C[C@@H]1CCO1)c1ccc(C2CC2)nc1 [Compound 176a, N-{2-[(4-{6-[(4-chloro-2-fluorophenyl)methoxy]pyridin-2-yl}piperidin-1-yl)methyl]-1-{[(2S)-oxetan-2-yl]methyl}-1H-1,3-benzodiazol-5-yl}-6-cyclopropylpyridine-3-carboxamide]
33 pM | C[C@H]1CN(c2ncc(F)c(OCc3ccc(Cl)cc3F)n2)CCN1Cc1nc2cc(-c3nnc(C(F)(F)F)[nH]3)cnc2n1C[C@@H]1CCO1 [Compound 527a, 4-[(4-chloro-2-fluorophenyl)methoxy]-5-fluoro-2-[(3S)-3-methyl-4-[(3-{[(2S)-oxetan-2-yl]methyl}-6-[5-(trifluoromethyl)-4H-1,2,4-triazol-3-yl]-3H-imidazo[4,5-b]pyridin-2-yl)methyl]piperazin-1-yl]pyrimidine]
130 pM | CC1(c2ccc(Cl)cn2)Oc2cccc(C3CCN(Cc4nc5cc(-c6nnc(C(F)(F)F)[nH]6)ncc5n4C[C@@H]4CCCO4)CC3)c2O1 (stereo partly drawn) [Compound 425a, 5-chloro-2-(2-methyl-4-{1-[(3-{[(2S)-oxolan-2-yl]methyl}-6-[5-(trifluoromethyl)-4H-1,2,4-triazol-3-yl]-3H-imidazo[4,5-c]pyridin-2-yl)methyl]piperidin-4-yl}-2H-1,3-benzodioxol-2-yl)pyridine]
1600 pM | CC1(c2ccc(Cl)cn2)Oc2cccc(C3CCN(Cc4nc5cc(-c6noc(=O)[nH]6)cnc5n4C[C@@H]4CCO4)CC3)c2O1 (stereo partly drawn) [Compound 332a, 3-[2-({4-[2-(5-chloropyridin-2-yl)-2-methyl-2H-1,3-benzodioxol-4-yl]piperidin-1-yl}methyl)-3-{[(2S)-oxetan-2-yl]methyl}-3H-imidazo[4,5-b]pyridin-6-yl]-4,5-dihydro-1,2,4-oxadiazol-5-one]
1100 pM | CC(=O)Nc1ccc2c(c1)nc(CN1CCC(c3cccc4c3OC(C)(c3ccc(Cl)cc3F)O4)CC1)n2C[C@@H]1CCO1 (stereo partly drawn) [Compound 240a, N-(2-((4-(2-(4-chloro-2-fluorophenyl)-2-methylbenzo[d][1,3]dioxol-4-yl)piperidin-1-yl)methyl)-1-(((S)-oxetan-2-yl)methyl)-1H-benzo[d]imidazol-5-yl)acetamide]
88 pM | C[C@]1(c2ccc(Cl)cc2F)Oc2cccc(C3CCN(Cc4nc5cc(-c6nnc(C(F)(F)F)[nH]6)ncc5n4C[C@@H]4CCCO4)CC3)c2O1 [Compound 426a, 4-[(2S)-2-(4-chloro-2-fluorophenyl)-2-methyl-2H-1,3-benzodioxol-4-yl]-1-[(3-{[(2S)-oxolan-2-yl]methyl}-6-[5-(trifluoromethyl)-4H-1,2,4-triazol-3-yl]-3H-imidazo[4,5-c]pyridin-2-yl)methyl]piperidine]
160 pM | CC1(c2ccc(Cl)cc2F)Oc2cccc(C3CCN(Cc4nc5cc(-c6nnn[nH]6)ccc5n4C[C@@H]4CCO4)CC3)c2O1 (stereo partly drawn) [Compound 232a, 2-((4-(2-(4-chloro-2-fluorophenyl)-2-methylbenzo[d][1,3]dioxol-4-yl)piperidin-1-yl)methyl)-1-(((S)-oxetan-2-yl)methyl)-5-(1H-tetrazol-5-yl)-1H-benzo[d]imidazole]
94 pM | CC1(c2ccc(Cl)cn2)Oc2cccc(C3CCN(Cc4nc5cc(-c6nnc(C7CC7)[nH]6)ncc5n4C[C@@H]4CCO4)CC3)c2O1 (stereo partly drawn) [Compound 266a, 5-chloro-2-[4-(1-{[6-(5-cyclopropyl-4H-1,2,4-triazol-3-yl)-3-{[(2S)-oxetan-2-yl]methyl}-3H-imidazo[4,5-c]pyridin-2-yl]methyl}piperidin-4-yl)-2-methyl-2H-1,3-benzodioxol-2-yl]pyridine]
